Source: US9725417B2, “Cdc42 inhibitor and uses thereof” (priority 2011, dated 2017)
Converted amounts (≈) assume the structure as drawn.

How the values were obtained:
Cdc42 [1] = biological target: T1, Cdc42 (Homo sapiens, UniProt P60953); test: Fluorescence titration of purified Cdc42 with ZCL278 (tryptophan fluorescence); type: binding; details: emission monitored at 350 nm
Procedure: The binding affinity of ZCL278 and Cdc42 was assessed by using two independent biophysical methods. First, fluorescence titration of purified Cdc42 ZCL278 was carded out by monitoring the change of fluorescence intensity of a tryptophan residue on CAc42 upon ZCL278 binding. As ZCL278 has a weak absorption peak at 310 nm, to avoid any experimental error that might result from potential fluorescence quenching by ZCL278, the fluorescence emission of Cdc42 was monitored at 350 nm, at which ZCL278 has a negligible absorption. […] These species in solution may have modifying effects on membrane transport and binding to Cdc42.

Cdc42 [2] = biological target: T1, Cdc42; test: Surface plasmon resonance, purified Cdc42 immobilized on CM5 chips; type: binding; details: SPR
Solubility determination = type: physicochemical
[3] = tested on: Cdc42-mediated microspike/filopodia formation in Swiss 3T3 fibroblasts; test: Cdc42-mediated microspike/filopodia formation in serum-starved Swiss 3T3 fibroblasts; type: cell-based, mouse; details: 50 μM for 1 hour, then Cdc42 activator 2 minutes
Procedure: 30 selected ZCL compounds were assessed for their ability to inhibit Cdc42-mediated microspike/filopodia formation in serum-starved Swiss 3T3 fibroblasts. Actin-based microspikes/filopodia are characteristic of Cdc42 activity in cultured fibroblastic cells. […] When arrested fibroblasts were briefly stimulated with 1 unit/mL of a commercial Cdc42 activator, a dramatic increase in microspike number and decrease in stress fibers occurred (FIG. 2A, Activator). Compound ZCL278 was applied at 50 μM for 1 hour and then stimulated with the Cdc42 activator for 2 minute. The cell periphery of ZCL278-treated cells resembles control cells with few microspikes (FIG. 2A, ZCL278).

phospho-Rac/Cdc42 = test: Western blot of phospho-Rac/Cdc42 (Serine 71) in PC-3 cells; type: cell-based, human; details: 50 μM for 5, 10 and 15 minutes
Procedure: First, Cdc42 activation was investigated in human metastatic prostate cancer PC-3 cells that were treated with the Cdc42 activator or 50 μM ZCL278 for 5, 10, and 15 minutes. Serine 71 phosphorylation is known to negatively regulate Rac/Cdc42 activity, thus an increase: in phospho-Rac/Cdc42 expression is indicative of a decrease in active (GTP-bound) Rac/Cdc42.
(§1) The Western blot: PC3 cells cultured to approximately 70% of the density, then removed serum and cultured for 16 hours, with addition of drugs: 1 unit/mL Cdc42 agonist (cytoskeleton) 5 uM, 50 uM ZCL278 to treat cells for 5, 10, and 15 minutes respectively. Cell lysis buffer (Formulation: 50 mM Tris buffer solution pH 7.5, 10 mM magnesium chloride, 0.5 M sodium chloride, 1% Triton X-100 and protease inhibitors) cell lysis and centrifuged at 14000 rpm and 4° C. to obtain extracted protein samples. Western blot analysis was conducted using antibody: phosphorylated Rac1/Cdc42 (Milipore Company), phosphorylated WASP (Assay Biotech Company), all at 1:1000, and GAPDH antibody (Calbiochem Company) on PVDF membrane for chemiluminescence development.

phospho-WASP = test: Western blot of phospho-WASP in PC-3 cells; type: cell-based, human; details: 50 μM, up to 15 minutes
Procedure: Wiskott-Aldrich syndrome Protein WASP) is a downstream effector of Cdc42 activation. Tyrosine phosphorylation WASP is linked to rapid Cdc42 degradation following its activation. […] Thus, ZCL278 inhibits Rac/Cdc42 phosphorylation in a time-dependent manner and maintains tyrosine phosphorylation of WASP.
as §1

GTP-bound (active) Cdc42 = biological target: T2, GTP-bound (active) Cdc42 (Mus musculus, UniProt P60766); test: G-LISA of GTP-bound (active) Cdc42 in Swiss 3T3 lysates; type: cell-based; details: then 1 unit/mL Cdc42 activator 2 minutes
T2 construct: endogenous in cells; host or cells: Swiss 3T3 fibroblasts (mouse)
T2 sequence (P60766 whole entry): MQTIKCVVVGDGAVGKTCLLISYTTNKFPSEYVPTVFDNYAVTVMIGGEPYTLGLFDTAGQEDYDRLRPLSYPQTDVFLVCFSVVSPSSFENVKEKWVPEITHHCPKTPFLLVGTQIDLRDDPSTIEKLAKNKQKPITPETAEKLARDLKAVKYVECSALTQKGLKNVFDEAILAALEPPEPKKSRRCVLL
Procedure: Serine 71 phosphorylation can occur on both Rac and Cdc42. To directly assess specific Cdc42 activation and inactivation, a G-LISA, an ELISA-based assay that allows a quantitative determination of the levels of GTP-bound (active) Cdc42 in cellular lysates was utilized. Serum-starved Swiss 3T3 fibroblasts were incubated for 1 hour with 50 μM ZCL278 or 10 μM NSC23766 (Rac inhibitor), followed by 2 minutes of stimulation with 1 unit/mL Cdc42 activator.
Finally, the ability of NSC23766 to cross-inhibit Cdc42 activation was analyzed. NSC23766 was developed in a similar manner as ZCL278; however, it is specific to Rac and should therefore act as an additional negative control in this assay.
G-LiSA kit: Swiss 3T3 cells were cultured to 40% of the growth density, then removed serum and cultured for 48 hours, treated with Cdc42 agonist for 1 minute, and treated with the 50 uM ZCL278 and 10 uM NSC23766. Cell lysis proteins were extracted according to kit instructions, and analysis of the quantification of total protein concentration to be 0.15 mg/ml. Untreated cells or cells treated with buffer were used as negative control while the agonist treated cells and active Cdc42 protein were used as a positive control. Enzyme linked immunosorbent assay measured the absorbance value of each sample 490 nm light wave.

active Cdc42 = test: Immunofluorescence staining of active Cdc42 in Swiss 3T3 cells; type: cell-based, mouse; details: 50 uM ZCL278 or 10 uM NSC23766, Cdc42 agonist 1 unit/ml
Procedure: (§2) Immunofluorescent staining: Swiss3T3 cells were grown on coverslips to 30% confluence. In serum-deprived culture, cells were treated with 10 uM NSC23766 or 50 uM ZCL278 for 1 hour followed by 1 unit/mL Cdc42 agonists (Cytoskeleton Products) treatment for 1 minute. Added agonist alone was used as a positive control while DMSO was used as a negative control. Cells on the coverslips were fixed in 4% paraformaldehyde for 15 minutes, and in 0.2% Triton X-100 for permeabilization for 15 minutes and then blocked in 10% BSA for 30 minutes.
(§3) Incubation with antibodies: anti-active Cdc42 (mouse antibody, Neweast Biosciences); phosphorylated RhoA antibody (rabbit antibody, Santa Cruz Biotechnology Company); GM130 antibody (mouse antibody, BD Biosciences Company). The next step was to apply corresponding secondary antibody. Rhodamine, Phalloidin was incubated for 1 hour at room temperature to observe filamentous actin under the Zeiss Axiovert fluorescent light microscopy of cells staining. Image processing software MetaMorph-5 was used to randomly select cells in randomly selected five-point pixels to obtain the average number of each group for pixel intensity values.
(§4) Determination of selective inhibition of Cdc42 activation by ZCL278 at the cellular level. […] FIG. 3C: Pixel intensity of phospho-RhoA in cells after treatments with Activator, ZCL278, or NSC23766 was quantified. […]

phosphorylated RhoA = test: Immunofluorescence staining of phosphorylated RhoA in Swiss 3T3 cells; type: cell-based, mouse; details: 50 uM ZCL278, 10 uM NSC23766 or 1 unit/ml Cdc42 agonist
Procedure: as §2, §3, §4

GM130 = test: GM130-docked Golgi organization in Swiss 3T3 cells; type: cell-based, mouse; details: 50 uM ZCL278 or 10 uM NSC23766, Swiss 3T3
Procedure: as §2
as §3, with “values. […]” for “values.”

PC-3 cells [4] = test: Wound healing (migration) assay in PC-3 cells; type: cell-based, human; details: 24 hours; for wound closure: control 41%
Procedure: Filopodia are dynamic structures that aid cells in pathfinding and migration, and are largely controlled by Cdc42 activity. Using a metastatic line of human prostate cancer cells (PC-3), a wound healing assay was used in order to elucidate the effects of ZCL278 on cellular migration. 1 unit/ml Cdc42 activator; 50 uM or 5 uM of ZCL278; and 10 uM […] respectively, were used to treat cells for 24 hours, with Cdc42 activator as positive control, and no treatment as negative control. Cells were photographed at 0 and 24 hours following drug treatments and MetaMorph software was used to determine the distances cells had migrated. Black line indicates the boundary of wounded area. Each experiment was tested with p value (p<0.05).
The experiment was repeated three times and the means were obtained:**; p<0.01,*:p<0.05. Wound closure was less pronounced at 50 μM (8%) than 5 μM (30%) concentrations.

PC-3 cells [5] = test: Trypan blue dye exclusion cell viability in PC-3 cells; type: cell-based; details: 50 μM ZCL278 or 10 μM NSC23766, 24 hours, PC-3, trypan blue
Procedure: Examination of cell survival: PC3 cells were plated at 75000/ml for 48 hours, serum was removed and 50 uM ZCL278 or 10 uM NSC23766 was added, and then continue to culture for 24 hours before staining with trypan blue to determine cell survival rate.
In order to ensure that decreases in cellular migration seen with ZCL278 treatment was due to Cdc42 inhibition (or Rae inhibition when treated with NSC23766) rather than cell death, cell viability was tested using the trypan blue dye exclusion assay. PC-3 cells were arrested in G0, and then 50 μM ZCL278 or 10 μM NSC23766 was applied for 24 hours. […] Therefore, the differences seen in migratory ability is due to ZCL278-mediated Cdc42 inhibition or NSC23766-mediated Rac inhibition and not cell death.

[6] = tested on: primary neonatal cortical neurons; test: Neuronal branching in primary neonatal cortical neurons; type: cell-based, mouse; details: 50 μM for 5 and 10 minutes, 5 days in vitro
Procedure: Primary neonatal day-one mouse brain was incubated with 0.25% trypsin HBSS for 15 minutes at 37° C., gently separated neurons were plated on poly-L-lysine coated coverslips, incubated with DMEM containing 10% bovine serum for 16 hours, then the media was changed to Neurobasal (Invitrogen). At 5 days in vitro, the cells were treated with either DMSO or 50 uM ZCL278 for 5 or 10 minutes, then fixed in 4% paraformaldehyde for 15 minutes. Fluorescein-phalloidin was applied to stain for F-actin structure and the neuronal morphology was observed under the Zeiss light microscope.
(§5) Time-lapsed video light microscopy was used to observe the effects of ZCL278 on neuronal growth cone dynamics, Hamamatsu Orca digital camera was used to record the cell images under 63× magnification for 10 minute. 300 ms exposure for imaging was used to minimize phototoxicity. The images were analyzed using MetaMorph software and statistical analysis was performed. At 5 days cultured in vitro, cortical neurons extended neurites with multiple branches (FIG. 6A, Control). 50 μM of ZCL278 was applied for 5 and 10 minutes, while DMSO-treated neurons were maintained as negative controls.

[7] = tested on: growth cone filopodia of cortical neurons; test: Time-lapse video microscopy of growth cone dynamics in cortical neurons; type: cell-based, mouse; details: ZCL278 treatment, cortical neuron growth cone
Procedure: as §5
Cdc42 is also widely known to control filopodia and microspikes at the leading edge of migrating growth cones. […] Thus, these studies further support ZCL278 as an effective small-molecule inhibitor of Cdc42-mediated neuronal branching and growth cone motility.

T1 sequence (P60953 whole entry, species assumed): as the sequence (P60766 whole entry) above

Cc1cc(C)nc(NS(=O)(=O)c2ccc(NC(=S)NC(=O)COc3ccc(Br)cc3Cl)cc2)n1 [ZCL278, 4-(3-(2-(4-Bromo-2-chlorophenoxy)acetyl)thioureido)-N-(4,6-dimethylpyrimidin-2yl)benzenesulfonamide]
Kd (Cdc42 [1]): 6.4 µM
Kd (Cdc42 [2]): 11.4 µM
solubility (Solubility determination): 181 µM (≈ 106 µg/mL)
inhibition of microspike formation [3]: obvious inhibition of microspike formation
Rac/Cdc42 phosphorylation (Serine 71) (phospho-Rac/Cdc42): time-dependent increase
phospho-WASP expression (phospho-WASP): does not suppress phospho-WASP activity
decrease in GTP-Cdc42 content compared with cells treated solely with the activator (GTP-bound (active) Cdc42; 50 μM ZCL278 1 hour): ~80%
perinuclear distribution and immunoreactivity of active Cdc42 (active Cdc42): obviously reduced this distribution
pixel intensity of phospho-RhoA (phosphorylated RhoA): did not alter the phosphorylation RhoA
GM130 immunoreactivity and distribution (GM130): clear reduction of GM130 immunoreactivity
wound closure (PC-3 cells [4]; 5 μM): 30%
wound closure (PC-3 cells [4]; 50 μM): 8%
cell viability versus non-treated cells (PC-3 cells [5]): no difference in viability
neuronal branch number [6]: significantly reduced
time to retraction of filopodia [7]: ≤ 4 min

CCN(CC)CCCC(C)Nc1nc(C)cc(Nc2ccc3nc(C)cc(N)c3c2)n1 (stereo not drawn) [NSC23766, reference compound]
effect on GTP-Cdc42 content (GTP-bound (active) Cdc42; 10 μM NSC23766 1 hour): does not reduce GTP-Cdc42 content
perinuclear distribution and immunoreactivity of active Cdc42 (active Cdc42): did not have similar effects
pixel intensity of phospho-RhoA (phosphorylated RhoA): did not alter the phosphorylation RhoA
GM130 immunoreactivity and distribution (GM130): did not significantly after GM130 expression or distribution
cellular migration (PC-3 cells [4]; 10 uM): significantly reduced
cell viability versus non-treated cells (PC-3 cells [5]): no difference in viability
